pIC50, pKi: −log10 of the molar value.
Experiments:
[1] = target: T1, Glutamate carboxypeptidase 2 (Homo sapiens, UniProt Q04609);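 as to pIC50: inhibition of binding of tritium-labelled N-acetyl-L-aspartyl-L-glutamate to the enzyme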
Description: Inhibition of N-acetyl-L-aspartyl-[3H]L-glutamate binding to glutamate carboxypeptidase II (GCP II)

[2] = Pharmacokinetic constant Area under curve(AUC) was determined after orally administered dose of 10 mgkg in rats; type: ADME, organism-based; parameters: dose 10 mgkg, route oral; conditions: rat, in vivo, po, 10 mg/kg
[3] = Pharmacokinetic constant(Tmax) after orally administered dose of 10 mgkg in rats; type: ADME, organism-based; parameters: dose 10 mgkg, route oral; conditions: rat, in vivo, po, 10 mg/kg
[4] = Pharmacokinetic constant Area under curve(AUC) was determined after intravenously administered dose of 10 mgkg in rats; type: ADME, organism-based; parameters: dose 10 mgkg, route intravenous; conditions: rat, in vivo, iv, 10 mg/kg
[5] = Plasma concentration was determined after orally administered dose of 10 mgkg in rats; type: ADME, organism-based; parameters: dose 10 mgkg, route oral; conditions: rat, po, 10 mg/kg
[6] = Half life after orally administered dose of 10 mgkg in rats; type: ADME, organism-based; parameters: dose 10 mgkg, route oral; conditions: rat, in vivo, po, 10 mg/kg
[7] = Half life after intravenously administered dose of 10 mgkg in rats; type: ADME, organism-based; parameters: dose 10 mgkg, route intravenous; conditions: rat, in vivo, iv, 10 mg/kg
[8] = Bioavailability after orally administered dose of 10 mgkg in rats; type: ADME, organism-based; conditions: rat, in vivo, po
[9] = target: T1, Glutamate carboxypeptidase 2; remark: listed apart in the source
Description: In vitro inhibitory activity against glutamate carboxypeptidase II (GCP II) using N-acetyl-L-aspartyl-[3H]L-glutamate as a substrate

T1 sequence (Q04609 whole entry): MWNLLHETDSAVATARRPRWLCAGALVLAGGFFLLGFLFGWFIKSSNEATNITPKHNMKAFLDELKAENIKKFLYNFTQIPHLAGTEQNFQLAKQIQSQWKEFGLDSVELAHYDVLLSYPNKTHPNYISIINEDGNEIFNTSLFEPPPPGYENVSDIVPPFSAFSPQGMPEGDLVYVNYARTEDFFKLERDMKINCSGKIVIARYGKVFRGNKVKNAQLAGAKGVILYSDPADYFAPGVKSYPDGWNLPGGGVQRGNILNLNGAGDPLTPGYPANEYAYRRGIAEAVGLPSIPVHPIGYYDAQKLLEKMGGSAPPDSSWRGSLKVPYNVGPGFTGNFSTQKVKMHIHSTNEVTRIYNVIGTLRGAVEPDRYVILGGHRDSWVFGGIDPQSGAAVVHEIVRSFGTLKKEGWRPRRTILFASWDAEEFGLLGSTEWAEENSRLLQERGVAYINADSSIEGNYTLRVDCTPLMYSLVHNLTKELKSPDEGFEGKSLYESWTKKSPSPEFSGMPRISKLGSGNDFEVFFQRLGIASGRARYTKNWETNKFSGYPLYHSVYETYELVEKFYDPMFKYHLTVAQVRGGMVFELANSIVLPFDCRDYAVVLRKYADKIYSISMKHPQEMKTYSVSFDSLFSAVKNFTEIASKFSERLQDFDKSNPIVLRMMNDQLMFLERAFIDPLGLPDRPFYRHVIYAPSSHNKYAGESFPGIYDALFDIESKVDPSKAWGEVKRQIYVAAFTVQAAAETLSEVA

O=C(O)CCC(CCS)C(=O)O (stereo not given)
pIC50 [1]: 6.24

O=C(O)CCCCS
pIC50 [1]: 5.85

O=C(O)CCC(C(=O)O)P(=O)(O)O (stereo not given)
pIC50 [1]: 5.85

O=C(O)CCC(CCCS)C(=O)O (stereo not given)
AUC [2]: 1820 ng·h/mL | Tmax [3]: 9.6 min | AUC [4]: 2550 ng·h/mL | Cmax [5]: 2230 ng/mL | half-life [6]: 70.8 min | half-life [7]: 63 min | bioavailability [8]: 71%

O=C(O)CCC(S)C(=O)O (stereo not given)
pIC50 [1]: 5.59

O=C(O)CCC(CCCSC(c1ccccc1)(c1ccccc1)c1ccccc1)C(=O)O (stereo not given)
pIC50 [1]: < 5.00

O=C(O)CCC(CCP(=O)(O)O)C(=O)O (stereo not given)
pIC50 [1]: 5.92

O=C(O)C(CS)Cc1ccccc1 (stereo not given)
pKi [9]: 7.96

O=C(O)CCC(CCCCS)C(=O)O (stereo not given)
pIC50 [1]: 5.96

O=C(O)CCC(CS)C(=O)O (stereo not given)
pIC50 [1]: 5.22

O=C(O)CCC(CCCCCS)C(=O)O (stereo not given)
pIC50 [1]: 5.59

O=C(O)CCC(CCCSSCCCC(CCC(=O)O)C(=O)O)C(=O)O (stereo not given)
AUC [2]: 53 ng·h/mL | Tmax [3]: 54 min | pIC50 [1]: 5.51 | AUC [4]: 190 ng·h/mL | Cmax [5]: 44 ng/mL | half-life [6]: 116 min | half-life [7]: 22.2 min

CSCCCC(CCC(=O)O)C(=O)O (stereo not given)
pIC50 [1]: 5.19
